3 molecules from patent US9902701B2, “Pyridazones and triazinones for treatment and prophylaxis of hepatitis B virus infection” (priority 2014, dated 2018) can be followed below.

This experiment deals with HBsAg. Put plainly: HBsAg assay: chemiluminescence immunoassay (CLIA) of secreted HBsAg in supernatant of HepG2.2.15 cells. It is filed as cell-based, HBV. To be noted: Hepatitis B virus. How it is done: HepG2.2.15 cells (Acs et al. Proc Natl Acad Sci USA, 84, (1987), 4641-4), a constitutively HBV-expressing cell line were cultured in DMEM+Glutamax-I medium (Invitrogen, Carlsbad, Calif., USA), supplemented with 10% fetal bovine serum (Invitrogen) and G418 (Invitrogen) at a final concentration of 200 mg/L and maintained in 5% CO2 at 37° C.
HepG2.2.15 cells were seeded in duplicate into white, 96-well plates at 1.5×10^4 cells/well. The cells were treated with a three-fold serial dilution series of the compounds in DMSO. The final DMSO concentration in all wells was 1% and DMSO was used as no drug control.
The HBsAg chemiluminescence immunoassay (CLIA) kit (Autobio Diagnostics Co., Zhengzhou, China, Catalog number: CL0310-2) was used to measure the levels of secreted HBV antigens semi-quantitatively. For the detection 50 μL/well culture supernatant was used and HBsAg was quantified using HBsAg chemiluminescence immunoassay (CLIA) kit (Autobio Diagnostics Co., Zhengzhou, China, Catalog number: CL0310-2), 50 μL of the supernatant was transferred to the CLIA assay plate and 50 μL of enzyme conjugate reagent was added into each well. The plates were sealed and gently agitated for 1 hour at room temperature. The supernatant-enzyme-mixture was discarded and wells were washed 6 times with 300 μL of PBS. The residual liquid was removed by plating the CLIA plate […] on absorbent tissue paper. 25 μL of substrates A and B were added to each well. Luminance was measured using a luminometer (Mithras LB 940 Multimode Microplate Reader) after 10 minutes incubation. Dose-response curves were generated and the IC50 value was extrapolated by using the E-WorkBook Suite (ID Business Solutions Ltd., Guildford, UK). The IC50 was defined as the compound concentration (or conditioned media log dilution) at which HBsAg secretion was reduced by 50% compared to the no drug control.
For orientation: IC50 means the concentration that inhibits the measured activity by half. A high value points to weaker potency. Turning to `CN(C(=O)Cn1nc(-c2ccc(Cl)cc2)cnc1=O)c1ccc(Cl)cc1` [Example 3-2, N-(4-Chlorophenyl)-2-[6-(4-chlorophenyl)-3-oxo-1,2,4-triazin-2-yl]-N-methyl-acetamide], the IC50 amounted to 6230 nM. The same measure for `CN(C(=O)CN1N=C(c2ccc(F)cc2F)CCC1=O)c1ccc(C(F)(F)F)cc1` [Example 1-30, 2-[3-(2,4-Difluorophenyl)-6-oxo-4,5-dihydropyridazin-1-yl]-N-methyl-N-[4-(trifluoromethyl)phenyl]acetamide]: 402 nM. Under `CN(C(=O)CN1N=C(c2ccc(Cl)c(F)c2)CCC1=O)c1cccc(Cl)c1` [Example 1-24, 2-[3-(4-Chloro-3-fluoro-phenyl)-6-oxo-4,5-dihydropyridazin-1-yl]-N-(3-chlorophenyl)-N-methyl-acetamide] stands 168 nM.
